The text below walks through data of US12460184B2, “Cell primed with CTGF-D4 and insulin or IGF-1 and use in methods for cardiac tissue repair” (University of Vermont and State Agriculture College, priority 2013, dated 2025).

In experiment [1] the test system is adult rat CPCs. The experiment can be described thus: Signal transduction inhibitor studies, CPCs cultured in CdM. The format is cell-based. The conditions noted are these: for cell number ratio to control cell number: CPCs in MSC CdM, 48 hrs, control CdM+DMSO = 100%. The procedure:
(§1) Adult rat CPCs and cardiac fibroblasts were plated at 500 cells/cm^2 and cultured in their respective growth mediums. Three days after plating, the medium was removed, the wells were washed twice with PBS, and the cells were then exposed to CdM or to fresh serum-free medium (Alpha-MEM). For time course proliferation studies, CdM and serum-free medium were changed every 2 days. In signal transduction inhibitor studies, the following pharmacological inhibitors were used: AG490, inhibitor of Jak2/STAT3 pathway; Stattic, inhibitor of STAT3; LY294002, inhibitor of phosphatidylinositol 3-kinase (PI3K)/Akt pathway; and PD98059, inhibitor of extracellular signal-regulated kinase (ERK). All of the inhibitors were purchased from Calbiochem (Darmstadt, Germany) and were dissolved in dimethyl sulfoxide (DMSO). CPCs were cultured in CdM with the inhibitors or with the equivalent volume of DMSO as a control for 48 hrs. In cell protection studies, 3 days after plating, medium was replaced with either the CdM or serum-free medium and the cells were exposed to hypoxia in a specialized incubator (1% oxygen) for 48 hrs. The hypoxia incubator was a model that measured both CO2 and O2 (Thermo Electron, Forma Series II, model 3130). Oxygen was maintained at 1% by the injection of nitrogen gas and was monitored continuously. Cell numbers were quantified by the fluorescent labeling of nucleic acids (CyQuant dye; Molecular Probes, Carlsbad, CA) and with a microplate fluorescence reader (FL×800; Bio-Tek Instruments Inc., Winooski, VT) set to 480 nm excitation and 520 nm emission. Each experiment was repeated a minimum of 3 times.

Experiment [2] has as its system adult rat CPCs. The experiment can be described thus: CPC protection during hypoxia (1% oxygen, 48 hrs). The format is cell-based. The note with it: for CdM-mediated protection of CPCs under hypoxic conditions: STAT3 inhibitor 10 μM added to CdM; for CPC number after hypoxia: 30 ng/ml alone, control SFM with 1% BSA 9004 cells, mean±SD; for protection of CPCs against 48 hr of hypoxia: 1 ng/ml (each) in SFM. The procedure:
as §1, with “continuously.” for “continuously. Cell numbers were quantified by the fluorescent labeling of nucleic acids (CyQuant dye; Molecular Probes, Carlsbad, CA) and with a microplate fluorescence reader (FL×800; Bio-Tek Instruments Inc., Winooski, VT) set to 480 nm excitation and 520 nm emission. Each experiment was repeated a minimum of 3 times.”
Cell numbers were quantified by the fluorescent labeling of nucleic acids (CyQuant dye; Molecular Probes, Carlsbad, CA) and with a microplate fluorescence reader (FL×800; Bio-Tek Instruments Inc., Winooski, VT) set to 480 nm excitation and 520 nm emission. Each experiment was repeated a minimum of 3 times.

Another experiment concerns Akt. Put plainly: Immunoblotting for phosphorylated Akt in CPCs. In kind it is cell-based, rat. The note with it: recombinant human Insulin, 30 min incubation. As for the experimental part:
(§2) Cells were lysed in a buffer that consisted of 0.1% sodium dodecyl sulphate (SDS) and complete protease inhibitor cocktail (Roche, Basel, Switzerland) in PBS. Protein concentration was determined by the DC protein assay (Biorad, Hercules, CA). Twenty μg of protein was separated by SDS-PAGE. After electrophoresis, the gels were electroblotted to polyvinylidene difluoride (PVDF) membranes. All electrophoresis and electroblotting used Novex reagents and systems (Invitrogen, Carlsbad, Calif.). The blots were blocked for 1 hr at RT in 5% nonfat dry milk in PBS with 0.1% Tween 20 (PBST), washed 3×5 min in PBST, and incubated in primary antibodies in PBST with 5% BSA overnight at 4° C. After 3×5 min washes in PBST, the blots were incubated in secondary antibody conjugated to horseradish peroxidase conjugate (1:2000, Sigma) in PBST for 1 hr at RT. Unbound secondary antibody was removed and positive bands were detected with a chemiluminescent reaction. The primary antibodies for immunoblotting were Ki67 (clone SP6, 1:200, Abcam, Cambridge, MA); p-STAT3 (Tyr705, 1:1000), total STAT3 (1:1000), p-Akt (Ser 473, 1:1000)(Cell signaling); and β-actin (1:5000, Sigma).
(In general: Immunoblotting shows a protein as a band on a membrane.)

For the next experiment, the system named is STAT3. Put plainly: Immunoblotting for phosphorylated STAT3 in CPCs. The format is cell-based, rat. The note with it: 3 ng/ml, 30 min, SFM containing 1% BSA. The procedure: as §2
Experiment [3] has as its system EPDCs. Put plainly: EPDC protection by CTGF-D4 under hypoxia (1% oxygen, 48 hr). The format is cell-based, rat. The conditions noted are these: blocker added.
Another experiment deals with canonical Wnt pathway. The experiment can be described thus: Canonical Wnt pathway signaling in EPDCs (p-GSK3β, nuclear β-catenin). In kind it is cell-based, rat.
Experiment [4] has as its system EPDCs. Put plainly: Ex vivo adhesion assay of EPDCs to fibronectin. In kind it is cell-based. The note with it: 40 ng/ml.
Experiment [5] has as its system EPDCs. The experiment can be described thus: Western blots for differentiation and adhesion/migration markers in EPDCs. The format is cell-based. The note with it: exposure to CTGF-D4.

Consider `N#C/C(=C/c1ccc(O)c(O)c1)C(=O)NCc1ccccc1` [AG490], for which the figures for the “cell number ratio to control cell number” value in the experiment on adult rat CPCs [1] (1 μM), in the experiment with adult rat CPCs [1] (5 μM) and in the experiment with adult rat CPCs [1] (10 μM) were 96.3±0.9%, 89.5±0.9% and 43.4±2.4%, respectively. Further, the CPC number entry in the experiment on adult rat CPCs [1] (10 μM, CPCs in CdM from p75MSCs or fibroblasts) was “inhibitory effect”. Further, in the experiment with adult rat CPCs [2], the “CdM-mediated protection of CPCs under hypoxic conditions” value is recorded as “abolished CdM-mediated protection”.
Take `COc1cccc(-c2cc(=O)c3ccccc3o2)c1N` [PD98059]: the “CPC proliferation in CdM” value with adult rat CPCs [1] (ERK inhibitor) is “did not diminish CPC proliferation”.
Take `O=[N+]([O-])c1ccc2c(c1)S(=O)(=O)C=C2` [Stattic, reference compound]: in the experiment with adult rat CPCs [1] (10 μM, vs DMSO vehicle, day 2 and 4), the “growth of CPCs in p75MSC CdM” value is on record as “abolished”. The “CdM-mediated protection of CPCs under hypoxic conditions” value in the experiment on adult rat CPCs [2] is reported as “abolished CdM-mediated protection”.
As to “IGF-1: human Insulin-like growth factor 1”, the “CPC number after hypoxia” value in the experiment on adult rat CPCs [2] is given as 14,894±559 cells.
In the case of “Insulin: recombinant human Insulin, dimer of A-chain and B-chain”, the “p-Akt in CPCs” value in the experiment on Akt was “induced p-Akt in a dose-responsive manner”. For the same molecule, in the experiment with adult rat CPCs [2], the “protection of CPCs against 48 hr of hypoxia” value was “did not protect CPCs” and the “CPC number after hypoxia” value is on record as 13,507±1,473 cells. Besides, in the experiment on adult rat CPCs [2] (recombinant human Insulin), the “CPC survival and proliferation” value was “increased also CPC survival and proliferation”.

B1: human CTGF: connective tissue growth factor, full-length polypeptide SEQ ID NO: 1 (protein, listed as Homo sapiens)
chain: MTAASMGPVRVAFVVLLALCSRPAVGQNCSGPCRCPDEPAPRCPAGVSLVLDGCGCCRVCAKQLGELCTERDPCDPHKGLFCDFGSPANRKIGVCTAKDGAPCIFGGTVYRSGESFQSSCKYQCTCLDGAVGCMPLCSMDVRLPSPDCPFPRRVKLPGKCCEEWVCDEPKDQTVVGPALAAYRLEDTFGPDPTMIRANCLVQTTEWSACSKTCGMGISTRVTNDNASCRLEKQSRLCMVRPCEADLEENIKKGKKCIRTPKISKPIKFELSGCTSMKTYRAKFCGVCTDGRCCTPHRTTTLPVEFKCPDGEVMKKNMMFIKTCACHYNCPGDNDIFESLYYRKMYGDMA
Regarding B1, in the experiment with STAT3, the “p-STAT3 in CPCs” value is listed as “significantly induced p-STAT3”.

B2: Dkk-1: a secreted inhibitor of Lrp6 (protein, UniProt O94907 32-266, looked up)
Dickkopf-related protein 1: TLNSVLNSNAIKNLPPPLGGAAGHPGSAVSAAPGILYPGGNKYQTIDNYQPYPCAEDEECGTDEYCASPTRGGDAGVQICLACRKRRKRCMRHAMCCPGNYCKNGICVSSDQNHFRGEIEETITESFGNDHSTLDGYSRRTTLSSKMYHTKGQEGSVCLRSSDCASGLCCARHFWSKICKPVLKEGQVCTKHRRKGSHGLEIFQRCYCGEGLSCRIQKDHHQASNSSRLHTCQRH
With B2, in the experiment with EPDCs [3], the “protection of EPDCs conferred by CTGF-D4” value was “significantly reduced the protection”.

B3: CTGF-D4: recombinant human C-terminal (domain 4) CTGF peptide, SEQ ID NO: 2 (protein, listed as Homo sapiens)
chain: MGKKCIRTPKISKPIKFELSGCTSMKTYRAKFCGVCTDGRCCTPHRTTTLPVEFKCPDGEVMKKNMMFIKTCACHYNCPGDNDIFESLYYRKMYGDMA
As for B3, the “protection of CPCs against 48 hr of hypoxia” value with adult rat CPCs [2] was “did not protect CPCs”. In addition, the “signaling through the canonical Wnt pathway (p-GSK3β, nuclear β-catenin)” value with canonical Wnt pathway is “promoted signaling through the canonical Wnt pathway”. Also, the “adhesion of EPDCs to fibronectin” value with EPDCs [4] is given as “promoted adhesion of EPDCs to fibronectin”. For the same molecule, in the experiment on EPDCs [5], the “EMT-like differentiation (SMA, CD90, ETrB protein levels)” value is given as “promoted EMT-like differentiation” and the “levels of Von Willebrand Factor” value was “did not seem to be affected”.
